Data: PubChem BioAssay (NCI)
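A five-concentration, 48-hour dose response in 96-well plates underlies each endpoint, interpolated linearly between surrounding concentrations. GI50 = concentration required for 50% inhibition of growth. TGI marks complete inhibition of growth.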

Experiments:
Assay in all cases: NCI anticancer screen, dose series, 48 h
[1] = tested on: RPMI-8226 leukemia
[2] = tested on: EKVX NSCLC
[3] = tested on: OVCAR-5 ovarian
[4] = tested on: NCI/ADR-RES ovarian
[5] = tested on: RXF 393 renal
[6] = tested on: UACC-257 melanoma
[7] = tested on: IGROV1 ovarian
[8] = tested on: KM12 colon
[9] = tested on: SN12C renal
[10] = tested on: CAKI-1 renal
[11] = tested on: SK-MEL-2 melanoma
[12] = tested on: SW-620 colon
[13] = tested on: NCI-H522 lung
[14] = tested on: HOP-62 NSCLC
[15] = tested on: SNB-19 CNS
[16] = tested on: HOP-92 NSCLC
[17] = tested on: SF-539 CNS
[18] = tested on: TK-10 renal
[19] = tested on: T-47D breast
[20] = tested on: SK-MEL-5 melanoma
[21] = tested on: M14 melanoma
[22] = tested on: SR leukemia
[23] = tested on: K-562 leukemia
[24] = tested on: MCF7 breast
[25] = tested on: UACC-62 melanoma
[26] = tested on: HS 578T breast
[27] = tested on: NCI-H23 lung
[28] = tested on: OVCAR-8 ovarian
[29] = tested on: MOLT-4 leukemia
[30] = tested on: LOX IMVI melanoma
[31] = tested on: SK-MEL-28 melanoma
[32] = tested on: BT-549 breast
[33] = tested on: A498 renal
[34] = tested on: MDA-MB-435
[35] = tested on: PC-3 prostate
[36] = tested on: NCI-H226 lung
[37] = tested on: MALME-3M melanoma
[38] = tested on: HT29 colon
[39] = tested on: HCT-15 colon
[40] = tested on: SF-268 CNS
[41] = tested on: SNB-75 CNS
[42] = tested on: U251 CNS
[43] = tested on: NCI-H460 lung
[44] = tested on: UO-31 renal
[45] = tested on: DU-145 prostate
[46] = tested on: CCRF-CEM leukemia
[47] = tested on: COLO 205 colon
[48] = tested on: MDA-MB-231 breast
[49] = tested on: SF-295 CNS
[50] = tested on: 786-0 renal
[51] = tested on: HCC-2998 colon
[52] = tested on: A549 NSCLC
[53] = tested on: SK-OV-3 ovarian
[54] = tested on: HCT-116 colon
[55] = tested on: OVCAR-4 ovarian
[56] = tested on: OVCAR-3 ovarian
[57] = tested on: ACHN renal

CC(C)C(=O)c1c(C(F)(F)F)n([O-])c2ccccc2[n+]1=O
GI50 [1]: 0.178 µM | TGI [1]: 1.31 µM | GI50 [2]: 0.876 µM | TGI [2]: 2.57 µM | GI50 [3]: 2.7 µM | TGI [3]: 6.25 µM | GI50 [4]: 1.74 µM | TGI [4]: 5.46 µM | GI50 [5]: 2.35 µM | TGI [5]: 13 µM | GI50 [6]: 2.74 µM | TGI [6]: 7.8 µM | GI50 [7]: 1.11 µM | GI50 [8]: 0.563 µM | TGI [8]: 1.65 µM | GI50 [9]: 1.77 µM | TGI [9]: 3.97 µM | GI50 [10]: 0.689 µM | TGI [10]: 2.1 µM | GI50 [11]: 2.01 µM | TGI [11]: 5.58 µM | GI50 [12]: 4.34 µM | TGI [12]: 17.5 µM | GI50 [13]: 1.76 µM | TGI [13]: 15.1 µM | GI50 [14]: 1.78 µM | TGI [14]: 3.49 µM | GI50 [15]: 3.51 µM | TGI [15]: 25.8 µM | GI50 [16]: 0.466 µM | TGI [16]: 1.62 µM | GI50 [17]: 1.81 µM | TGI [17]: 5.17 µM | GI50 [18]: 0.59 µM | TGI [18]: 2.07 µM | GI50 [19]: 0.827 µM | TGI [19]: 3.49 µM | GI50 [20]: 1.63 µM | TGI [20]: 3.03 µM | GI50 [21]: 1.74 µM | TGI [21]: 3.76 µM | GI50 [22]: < 0.0197 µM | GI50 [23]: 0.508 µM | TGI [23]: > 27.1 µM | GI50 [24]: 0.731 µM | TGI [24]: 6.06 µM | GI50 [25]: 1.59 µM | TGI [25]: 3.44 µM | GI50 [26]: 5.4 µM | TGI [26]: 18.1 µM | GI50 [27]: 1.67 µM | TGI [27]: 3.41 µM | GI50 [28]: 2.14 µM | TGI [28]: > 20.5 µM | GI50 [29]: 1.27 µM | TGI [29]: 9.65 µM | GI50 [30]: 1.85 µM | GI50 [31]: 9.06 µM | TGI [31]: 25.1 µM | GI50 [32]: 1.06 µM | TGI [32]: 3.08 µM | GI50 [33]: 7.34 µM | TGI [33]: 16.2 µM | GI50 [34]: 1.07 µM | TGI [34]: 3.45 µM | GI50 [35]: 0.688 µM | TGI [35]: 3.03 µM | GI50 [36]: 1.86 µM | TGI [36]: 5.27 µM | GI50 [37]: 0.654 µM | TGI [37]: 2.03 µM | GI50 [38]: 9.43 µM | TGI [38]: > 36.4 µM | GI50 [39]: 2.31 µM | TGI [39]: > 27.1 µM | GI50 [40]: 1.03 µM | TGI [40]: 4.66 µM | GI50 [41]: 15.2 µM | TGI [41]: > 42.7 µM | GI50 [42]: 2.84 µM | TGI [42]: > 33.2 µM | GI50 [43]: 1.72 µM | TGI [43]: 5.56 µM | GI50 [44]: 1.18 µM | TGI [44]: 3.11 µM | GI50 [45]: 1.12 µM | TGI [45]: 2.54 µM | GI50 [46]: 1.57 µM | TGI [46]: 9.83 µM | GI50 [47]: 1.31 µM | TGI [47]: 2.97 µM | GI50 [48]: 1.58 µM | TGI [48]: 3.58 µM | GI50 [49]: 0.553 µM | TGI [49]: 2 µM | GI50 [50]: 1.65 µM | TGI [50]: 3.73 µM | GI50 [51]: 1.74 µM | TGI [51]: 4.04 µM | GI50 [52]: 2.46 µM | TGI [52]: 6.79 µM | GI50 [53]: 2.66 µM | TGI [53]: > 100 µM | GI50 [54]: 1.25 µM | TGI [54]: 3.99 µM | GI50 [55]: 4.47 µM | TGI [55]: 18.8 µM | GI50 [56]: 0.493 µM | TGI [56]: 1.24 µM | GI50 [57]: 2.3 µM
